{
  "source": "paper PMC2813745",
  "about": "“A novel inhibitor of the PI3K/Akt pathway based on the structure of inositol 1,3,4,5,6-pentakisphosphate” (British Journal of Cancer, 2010)",
  "key": {"[1]": {"test_system": "Akt phosphorylation at Ser473 and Thr308 in PC3 tumours", "test": "Akt phosphorylation in excised tumours (western blot)", "type": "in vivo, nude athymic CD-1 nu/nu mice", "conditions": "single dose 50 mg kg^−1, tumours excised 24 h after treatment", "method": "Animals were killed 24 h after treatment and tumour samples were collected and snap frozen. Frozen specimens of tumour tissue were homogenised with a Polytron homogeniser in a lysis buffer (ratio 1 : 1 w/v) containing 50 mM Tris-HCl (pH 7.4), 5 mM EDTA, 0.1% Nonidet NP-40, 250 mM NaCl, 50 mM NaF and proteases and phosphatase inhibitors. After centrifugation at 13 000 r.p.m. for 10 min at 4°C, 80 μg of protein was separated on SDS–PAGE and transferred to a polyvinylidene difluoride membrane (Millipore, MA, USA). Membranes were probed with the indicated antibodies.\nThe inositol compounds (12.5–25–50 mg kg^−1 day^−1) and vehicle (water) were given daily by intraperitoneal (i.p.) injections for 14 consecutive days (days 15–28). Tumour size was assessed twice weekly. (A, B) Tumour growth in 2-O-Bn-InsP5-treated mice (A) and InsP5-treated mice (B) compared with control group measured for the duration of the experiment. Results are expressed as mean±s.e. (C) Top: Table showing all P-values for the indicated doses of 2-O-Bn-InsP5 compared to controls at the indicated days of treatment (NS=not significant). […] The percentage of tumour weight inhibition (TWI%), the tumour growth delay (T−C) and the log cell kill (LCK) were calculated as described in the MATERIALS AND METHODS section. […] Phosphorylation of Akt at its residues Ser473 and Thr308 was assessed by using specific antibodies. […]"}, "ASPC1": {"test_system": "ASPC1", "test": "Cell survival by cell counting, ASPC1", "type": "cell-based, human", "conditions": "ASPC1, 72 h", "method": "(§1) Cells seeded in a 24-well plate were treated with the indicated compounds in serum free DMEM or DMEM containing 0.5% FBS (PC3). After 72 h, the number of surviving cells was assessed by manual cell counting or by using the cell counter CDA-500 (Sysmex, Milton Keynes, UK). Alternatively, after 48 h, the number of apoptotic cells was assessed by acridine orange/ethidium bromide assay as described ([Piccolo et al, 2004]; [Maffucci et al, 2005]). SRB test was carried out in SKOV-3 and PC3 seeded in 96-well plate (3800 cells per well or 5800 cells per well, respectively) after 72 h of treatment as described ([Cappella et al, 2001]).\n(§2) The number of surviving cells was assessed by cell counting. Data are mean±s.e. of n=3 (A), n=6 (B), n=3 (C) and n=4 (D) independent experiments carried out in duplicate. ^*=P<0.01; ^**=P<0.05. […] After 72 h the number of surviving cells was assessed by SRB assay. Data are mean±s.e. of n=2 independent experiments.\n(§3) Data are mean±s.e. of n=4 independent experiments carried out in duplicate. […] Data are mean±s.e. of n=5 independent experiments carried out in duplicate. […] In all cases (A–D), cells were treated for 72 h and the number of surviving cells was assessed by cell counting. […] In all cases (E, F), cells were treated for 72 h and the number of surviving cells was assessed by SRB assay and data are mean±s.e. of two experiments carried out in quadruplicate."}, "MDA-MB-468": {"test_system": "MDA-MB-468", "test": "Cell survival by cell counting, MDA-MB-468", "type": "cell-based, human", "conditions": "MDA-MB-468, 72 h", "method": "as §1, §2, §3"}, "MCF7": {"test_system": "MCF7", "test": "Cell survival by cell counting, MCF7", "type": "cell-based, human", "conditions": "MCF7, 72 h, 20 nM 4-OH Tamoxifen, 50 μM 2-O-Bn-InsP5 alone or in combination", "method": "as §1\nData are mean±s.e. of n=4 independent experiments carried out in duplicate. […] Data are mean±s.e. of n=5 independent experiments carried out in duplicate. […] Data are mean±s.e. of n=6 independent experiments carried out in duplicate. […] Data are mean±s.e. of n=2 independent experiments carried out in duplicate. In all cases (A–D), cells were treated for 72 h and the number of surviving cells was assessed by cell counting. […] In all cases (E, F), cells were treated for 72 h and the number of surviving cells was assessed by SRB assay and data are mean±s.e. of two experiments carried out in quadruplicate."}, "[2]": {"test_system": "Akt phosphorylation in ASPC1", "test": "Akt activation by western blot in ASPC1", "type": "cell-based, human", "conditions": "ASPC1, results not shown"}, "SKOV-3 [3]": {"test_system": "SKOV-3", "test": "Cell survival by cell counting, SKOV-3", "type": "cell-based, human", "conditions": "SKOV-3, 72 h", "method": "as §1\n(§4) The number of surviving cells was assessed by cell counting. Data are mean±s.e. of n=4 (A) and n=2 (B) independent experiments. ^**=P<0.05. […] The number of apoptotic cells was assessed by acridine orange/ethidium bromide assay. Data are mean±s.e. of three independent experiments. ^**=P<0.05."}, "BxPc-3": {"test_system": "BxPc-3", "test": "Cell survival by cell counting, BxPc-3", "type": "cell-based, human", "conditions": "BxPc-3, 72 h", "method": "as §1, §2"}, "[4]": {"test_system": "Akt phosphorylation in PC3", "test": "Akt activation by western blot in PC3", "type": "cell-based, human", "conditions": "PC3, 24 h, medium containing 0.5% FBS", "method": "(§5) Akt activation was assessed by monitoring phosphorylation at its residues Ser473 and Thr308. Membranes were then stripped and re-probed with the indicated antibodies."}, "SKBR3": {"test_system": "SKBR3", "test": "Acridine orange/ethidium bromide apoptosis assay, SKBR3", "type": "cell-based, human", "method": "as §1, §4"}, "PC3": {"test_system": "PC3", "test": "Cell survival by cell counting, PC3", "type": "cell-based, human", "conditions": "PC3, 72 h", "method": "as §1, §2, §3"}, "[5]": {"test_system": "almost 60 protein kinases", "test": "SelectScreen kinase profiling: all the other tested kinases of the panel", "type": "biochemical", "conditions": "1 μM; all tested kinases other than PDK1 and mTOR", "method": "Effect of the indicated compounds on the activity of various kinases was assessed by SelectScreen Kinase Profiling Service (Invitrogen-Life Technologies, Paisley, UK). Assays were performed using 1 μM of the tested compounds and ATP concentration as indicated in the corresponding tables. In the case of InsP5 a screen using 10 μM of the compound was also carried out, as indicated in the corresponding table.\nNone of the other polyphosphates had any significant effect (Table 1C). […] This is consistent with the detected inhibition of Thr308 phosphorylation in 2-O-Bn-InsP5-treated SKOV-3 and PC3 cells (Figure 1B and C) and 2-O-Bn-InsP5-treated mice (Figure 4D)."}, "SKOV-3 [6]": {"test_system": "SKOV-3", "test": "Acridine orange/ethidium bromide apoptosis assay, SKOV-3", "type": "cell-based, human", "conditions": "SKOV-3, acridine orange/ethidium bromide assay", "method": "as §1, §4"}, "[7]": {"test_system": "Akt phosphorylation at Ser473 and Thr308 in SKOV-3", "test": "Akt activation by western blot in SKOV-3", "type": "cell-based, human", "conditions": "SKOV-3, 8 h or 24 h, serum free medium", "method": "as §5"}, "CAMK1 (CaMK1)": {"molecular_target": "CAMK1 (CaMK1) (Homo sapiens, UniProt Q14012)", "sequence (Q14012 whole entry)": "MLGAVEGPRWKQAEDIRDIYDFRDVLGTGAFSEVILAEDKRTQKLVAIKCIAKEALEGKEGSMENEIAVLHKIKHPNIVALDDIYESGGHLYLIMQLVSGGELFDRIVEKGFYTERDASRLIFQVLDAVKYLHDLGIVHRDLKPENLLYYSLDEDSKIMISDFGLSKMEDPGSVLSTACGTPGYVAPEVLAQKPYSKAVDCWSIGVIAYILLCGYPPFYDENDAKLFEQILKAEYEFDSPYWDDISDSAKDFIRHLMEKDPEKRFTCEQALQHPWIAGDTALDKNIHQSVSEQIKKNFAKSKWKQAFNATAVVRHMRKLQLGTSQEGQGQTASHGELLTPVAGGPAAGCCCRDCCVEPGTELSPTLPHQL", "test": "SelectScreen kinase profiling: CAMK1", "type": "biochemical", "conditions": "10 µM compound; [ATP] 100 µM", "method": "Effect of the indicated compounds on the activity of various kinases was assessed by SelectScreen Kinase Profiling Service (Invitrogen-Life Technologies, Paisley, UK). Assays were performed using 1 μM of the tested compounds and ATP concentration as indicated in the corresponding tables. In the case of […] a screen using 10 μM of the compound was also carried out, as indicated in the corresponding table."}},
  "data": [
    {"smiles": "O=P(O)(O)OC1C(OCc2ccccc2)C(OP(=O)(O)O)C(OP(=O)(O)O)C(OP(=O)(O)O)C1OP(=O)(O)O", "note": "(stereo not shown) [2-O-Bn-InsP5, 2-O-benzyl-myo-inositol 1,3,4,5,6-pentakisphosphate]", "values": [
      {"measurement": "Akt phosphorylation at residue Ser473 in tumours", "setting": "[1]", "value": "markedly reduced Akt phosphorylation at its residue Ser473 in all 2-O-Bn-InsP5-treated mice"},
      {"measurement": "Akt phosphorylation at residue Thr308 in tumours", "setting": "[1]", "value": "clear inhibition of Akt phosphorylation at its residue Thr308 was detected in five out of seven"},
      {"measurement": "number of surviving cells", "setting": "ASPC1", "value": "more active than InsP5 at almost all concentrations tested"},
      {"measurement": "number of surviving cells", "setting": "MDA-MB-468", "value": "stronger activity of 2-O-Bn-InsP5 compared with InsP5"},
      {"measurement": "number of surviving cells", "setting": "MCF7", "value": "little effect"},
      {"measurement": "Akt phosphorylation", "setting": "[2]", "value": "able to block Akt phosphorylation"},
      {"measurement": "number of surviving cells", "setting": "SKOV-3 [3]", "value": "strongly reduced the number of surviving"},
      {"measurement": "number of surviving cells", "setting": "BxPc-3", "value": "more potent than InsP5 at a concentration of 50 μM"},
      {"measurement": "Akt phosphorylation", "setting": "[4]", "value": "able to block Akt phosphorylation"},
      {"measurement": "percentage of apoptotic cells", "setting": "SKBR3", "value": "percentage of apoptotic cells was higher in 2-O-Bn-InsP5-treated compared with InsP5-treated"},
      {"measurement": "number of surviving cells", "setting": "PC3", "value": "stronger activity of 2-O-Bn-InsP5 compared with InsP5"},
      {"measurement": "percentage of inhibition of all the other tested kinases", "setting": "[5]", "value": "< 40", "unit": "%"},
      {"measurement": "percentage of apoptotic cells", "setting": "SKOV-3 [6]", "value": "percentage of apoptotic cells was higher in 2-O-Bn-InsP5-treated compared with InsP5-treated"},
      {"measurement": "Akt phosphorylation at residue Ser473", "setting": "[7]", "value": "inhibited Akt phosphorylation at its residue Ser473 more efficiently than InsP5 in SKOV-3, being already active after 8 h of treatment and at a concentration of 20 μM"},
      {"measurement": "Akt phosphorylation at residue Thr308", "setting": "[7]", "value": "Inhibition of Akt phosphorylation at residue Thr308 was also detected"}
    ]},
    {"smiles": "O=P(O)(O)OC1C(O)C(OP(=O)(O)O)C(OP(=O)(O)O)C(OP(=O)(O)O)C1OP(=O)(O)O", "note": "(stereo not shown) [InsP5, inositol 1,3,4,5,6-pentakisphosphate]", "values": [
      {"measurement": "inhibition at 10 µM", "setting": "CAMK1 (CaMK1)", "value": -46, "unit": "%"}
    ]}
  ]
}
